According to the NIST ThermoML archive (doi:10.1016/j.tca.2012.09.040):
± gives the expanded uncertainty stated by the source.

Experiment: of the first substance listed, at infinite dilution; xn = mol fraction of the nth substance listed
Conditions: 100 kPa, Liquid, isoperibol

| partial molar enthalpy (298.15 K, x1 = 0) [kcal/mol] | partial molar enthalpy (318.15 K, x1 = 0) [kcal/mol] | partial molar enthalpy (298.15 K, x2 = 1) [kcal/mol] | partial molar enthalpy (318.15 K, x2 = 1) [kcal/mol] | Compound |
| --- | --- | --- | --- | --- |
| 1.35 ± 0.0263 | 1.22 ± 0.0239 | – | – | CN(C)C=O [dimethylformamide] + CCCCCCCCO |
| – | – | 1.55 ± 0.0311 | 1.52 ± 0.0311 | CCCCCCCCO [octan-1-ol] + CN(C)C=O |
